Measured values: patent US12673084B2, “Compositions and methods for combinatorial drug discovery in nanoliter droplets” (The Broad Institute, Inc., priority 2017, dated 2026)
Starred links: 1 amine or outer side, 2 acyl side, 3 side chain; linkers in the order of their positions; H or OH if unused. Non-standard residues stand in square brackets, D forms with d. Residues, ends and D or L forms follow the SMILES beside them. Groups on a side chain read outwards from the residue. *: point of attachment. Ethylenediamine = C(CN[*:2])N[*:1]; Hyp = O=C(O)[C@@H]1C[C@@H](O)CN1; Phg = N[C@H](C(=O)O)c1ccccc1; CO = O=C([*:1])[*:2]; Bn = c1ccc(C*)cc1

Legend:
[1] = molecular target: T1, receptors containing edited GluR2 subunits (Homo sapiens, UniProt P42262, Q607R); conditions: 100 microM compound; n=5 oocytes; Vh −80 mV; cited from earlier work
T1 construct: host or cells: Xenopus oocytes expressing recombinant receptors

[2] = molecular target: Native AMPA/kainate receptors, interneurons; conditions: cited from earlier work
[3] = molecular target: Native AMPA/kainate receptors, pyramidal neurons; conditions: cited from earlier work
[4] = molecular target: recombinant, homomeric GluR1 and GluR3 receptors; conditions: cited from earlier work
[5] = molecular target: Rac (Homo sapiens, UniProt P63000); conditions: cited from earlier work
[6] = system: E. coli K-12 MG1655; assay: Antibiotic potentiation primary screen in nanoliter droplet microwell array (GFP growth, Bliss score); format: cell-based, Escherichia coli; conditions: for Primary screening prediction of synergy with tetracycline: compound 100 μM x tetracycline; for Interaction between Tedizolid and Pasireotide (relative GFP): each 100 μM, same microwell array, FIG. 34; for Primary screening call, pilot phase: pilot phase of screen
Experimental: To perform the antibiotic potentiation screen, each microwell chip received droplets containing a total of 64 input conditions, with 32 held constant across all chips, and 32 that vary on each chip (FIG. 3F). The first 32, held fixed, consisted of 30 antibiotic conditions (10 antibiotics×3 concentrations, no cells), and 2 media controls (no cells). The second 32 consisted of 1-2 positive controls (sulbactam 20 μM, + cells; or erythromycin 5 μM, + cells), 1-2 negative blank controls (+ cells), 2-4 media controls (+ cells), and 24-28 variable compounds (100 μM, + cells). All conditions were in cation-adjusted Mueller Hinton broth media, 2% DMSO (all concentrations reported are final concentrations).
This setup allowed the screen to be performed in a divide-and-conquer format. The repurposing compound library is composed of 4,160 compounds across 52 96-well plates (80 compounds per plate, with controls in column 1 and 12). Each 96-well plate was divided into 3 groups of 32, each run on a separate chip but pooled with the same set of antibiotics-carrying droplets.
E. coli K-12 MG1655 with plasmid-mediated constitutive expression of GFP was prepared as described above, and added to all conditions described as “+ cells” just prior to emulsification. After loading, imaging, and merging, microwell arrays were incubated at 37° C. (static), and then later imaged again to measure growth by GFP fluorescence.
To estimate synergy between compounds and antibiotics, the Bliss Independence metric was used.
The net growth inhibition for antibiotic A from microwells carrying an antibiotic A (no cells) droplet, and a media (+ cells) droplet were estimated. The net growth inhibition of a screening compound from microwells carrying compound B (+ cells) droplet, and a media (no cells) droplet were also estimated. All growth values were normalized to microwells containing a pair of media (+ cells) and media (no cells) droplets, and estimated synergy using the Bliss Independence metric. Since each antibiotic was present at 3 concentrations, a metric was summed for the compound across each of the 3 conditions to yield a final metric called “Bliss Score.” Compounds with net growth inhibition exceeding 80% were removed from analysis.
To estimate the uncertainty in the Bliss Score measurement, all microwells in the array were bootstrap resampled (100 iterations) to the number of counted for each pair of inputs and recomputed Bliss Scores to estimate a sampling distribution and standard error.

[7] = year-long trial; cited from earlier work
[8] = 12 weeks, cited from earlier work
[9] = 416 COPD patients; dry-powder inhaler; cited from earlier work
[10] = molecular target: somatostatin receptor 5 (Homo sapiens, UniProt P35346); conditions: cited from earlier work
[11] = cited from earlier work
[12] = system: P. aeruginosa; assay: Checkerboard drug interaction assay ampicillin x sulbactam, 96-well broth culture vs microdroplet platform; format: cell-based, Pseudomonas aeruginosa
Text: FIG. 27 is a graph of a comparison checkerboard assay between 96-well plates and microwell array platform. Comparison of checkerboard drug interaction assay in P. aeruginosa for ampicillin and a beta-lactamase inhibitor, sulbactam.

T1 sequence (P42262 25-883 Q607R): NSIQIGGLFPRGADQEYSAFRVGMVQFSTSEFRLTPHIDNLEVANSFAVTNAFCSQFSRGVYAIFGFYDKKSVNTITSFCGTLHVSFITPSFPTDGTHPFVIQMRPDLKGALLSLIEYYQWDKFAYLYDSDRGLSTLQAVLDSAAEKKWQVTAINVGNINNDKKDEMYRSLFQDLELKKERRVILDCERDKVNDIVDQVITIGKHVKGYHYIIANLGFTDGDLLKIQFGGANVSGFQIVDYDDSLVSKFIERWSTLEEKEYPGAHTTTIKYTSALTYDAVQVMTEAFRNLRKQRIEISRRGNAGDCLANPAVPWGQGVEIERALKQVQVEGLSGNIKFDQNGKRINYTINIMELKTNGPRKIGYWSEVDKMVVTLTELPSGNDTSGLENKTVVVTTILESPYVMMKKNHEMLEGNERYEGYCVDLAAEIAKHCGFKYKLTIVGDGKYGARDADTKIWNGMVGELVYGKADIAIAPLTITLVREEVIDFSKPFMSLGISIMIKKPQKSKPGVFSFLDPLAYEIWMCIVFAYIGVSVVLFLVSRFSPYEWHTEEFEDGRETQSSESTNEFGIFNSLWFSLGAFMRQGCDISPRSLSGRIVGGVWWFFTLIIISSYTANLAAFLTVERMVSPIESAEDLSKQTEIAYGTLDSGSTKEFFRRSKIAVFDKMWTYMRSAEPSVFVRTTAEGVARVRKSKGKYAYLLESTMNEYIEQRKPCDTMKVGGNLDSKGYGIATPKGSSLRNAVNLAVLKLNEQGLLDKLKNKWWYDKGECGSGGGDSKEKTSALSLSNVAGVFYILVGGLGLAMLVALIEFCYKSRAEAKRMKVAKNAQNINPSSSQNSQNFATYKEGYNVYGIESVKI
Sequence of somatostatin receptor 5 (P35346 whole entry): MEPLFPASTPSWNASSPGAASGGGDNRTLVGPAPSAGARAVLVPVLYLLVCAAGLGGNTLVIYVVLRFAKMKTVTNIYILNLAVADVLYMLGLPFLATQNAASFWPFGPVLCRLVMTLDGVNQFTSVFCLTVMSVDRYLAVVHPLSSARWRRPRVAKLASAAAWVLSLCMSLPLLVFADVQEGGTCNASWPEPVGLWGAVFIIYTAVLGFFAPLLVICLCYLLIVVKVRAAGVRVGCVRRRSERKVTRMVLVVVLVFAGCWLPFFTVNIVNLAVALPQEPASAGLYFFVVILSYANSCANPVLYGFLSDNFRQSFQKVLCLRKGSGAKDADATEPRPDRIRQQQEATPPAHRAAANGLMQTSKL

SMILES: C[N+](C)(C)CCCCCNCC12CC3CC(CC(C3)C1)C2 [IEM-1460, 1-trimethylammonio-5-(1-adamantane-methyl-ammoniopentanedibromide)]
- inhibition of responses to 100 microM kainate [1]: 7.8+/−2.4%
- IC50 ([2]; Vh=−80 mV): 1.6 µM
- IC50 ([3]; Vh=−80 mV): 1620 µM
- IC50 ([4]; holding potential (Vh) of −80 mV, open channel block): 1.6 µM

SMILES: CCn1c2ccccc2c2cc(Nc3ccnc(NCCCN4CCOCC4)n3)ccc21 (racemic) [EHop-016]
- more efficient inhibitor of Rac activity than NSC23766 [5]: 100 fold

SMILES: CCN(CC)CCCC(C)Nc1nc(C)cc(Nc2ccc3nc(C)cc(N)c3c2)n1.Cl.Cl.Cl (racemic) [NSC23766]
- Primary screening prediction of synergy with novobiocin ([6]; compound 100 μM x novobiocin, E. coli): synergy predicted
- Primary screening prediction of synergy with tetracycline ([6]; E. coli): no synergy predicted

SMILES: CCc1cc2c(cc1CC)CC(NC[C@H](O)c1ccc(O)c3[nH]c(=O)ccc13)C2 [Indacaterol]
- improving FEV1 compared with twice-daily formoterol [7]: significantly more effective
- effect on FEV1 compared with tiotropium [8]: no statistical difference
- St. George's Respiratory Questionnaire (SGRQ) total score ([8]; vs tiotropium): greater improvements
- transition dyspnoea index (TDI) total score ([8]; vs tiotropium): greater improvements
- FEV1 (both trough and AUC) compared to placebo [9]: statistically improved
- Primary screening call with erythromycin ([6]; compound 100 μM x erythromycin, E. coli): screening hit

SMILES: NCCCC[C@@H]1NC(=O)[C@@H](Cc2c[nH]c3ccccc23)NC(=O)[C@H](c2ccccc2)NC(=O)[C@@H]2C[C@@H](OC(=O)NCCN)CN2C(=O)[C@H](Cc2ccccc2)NC(=O)[C@H](Cc2ccc(OCc3ccccc3)cc2)NC1=O [Pasireotide, cyclo[{4-(NH2-C2H4-NH—CO—O-)Pro}-Phg-DTrp-Lys-Tyr(4-Bzl)-Phe]] (cyclo([Hyp]([CO-Ethylenediamine])[Phg][dW]KY(Bn)F))
- increased affinity to somatostatin receptor 5 compared to other somatostatin analogs [10]: 40 fold
- Interaction between Tedizolid and Pasireotide (relative GFP) [6]: synergistic interaction

SMILES: CC[C@H]1OC(=O)[C@H](C)[C@@H](O[C@H]2C[C@@](C)(OC)[C@@H](O)[C@H](C)O2)[C@H](C)[C@@H](O[C@@H]2O[C@H](C)C[C@H](N(C)C)[C@H]2O)[C@](C)(O)C[C@@H](C)C(=O)[C@H](C)[C@@H](O)[C@]1(C)O [erythromycin]
- Bliss score with tetracycline ([6]; positive control, expected value, erythromycin 5 μM x tetracycline, E. coli): ~ 0.5

SMILES: C[C@@H](O)[C@@H]1NC(=O)[C@H](CCCCN)NC(=O)[C@@H](Cc2c[nH]c3ccccc23)NC(=O)[C@H](Cc2ccccc2)NC(=O)[C@@H](NC(=O)[C@H](N)Cc2ccccc2)CSSC[C@@H](C(=O)N[C@H](CO)[C@@H](C)O)NC1=O [Octreotide]
- half-life [11]: 1.5 h

SMILES: CC1(C)[C@H](C(=O)O)N2C(=O)C[C@H]2S1(=O)=O [sulbactam]
- FIC with ampicillin ([12]; 96-well broth culture): <= 0.5
- FIC with ampicillin ([12]; microdroplet platform): <= 0.3125
- Bliss score with ampicillin ([6]; positive control, expected value, sulbactam 20 μM x ampicillin, E. coli): ~ 1

SMILES: Br.Br.NCCCCCNCC12CC3CC(CC(C3)C1)C2 [IEM 1754, 1-ammonio-5-(1-adamantane-methylammoniopentanedibromide)]
- times less potent than IEM-1460 [2]: approximately 3 times
- potency relative to IEM-1460 [3]: equipotent
- Primary screening prediction of synergy with tetracycline ([6]; E. coli): predicted neutral
- Primary screening call, pilot phase ([6]; E. coli): hit
- times less potent than IEM-1460 ([4]; homomeric GluR1 and GluR3): 3.8 times

SMILES: O=C(CNC(=O)c1ccc(Cl)cc1)NO [Benurestat, 2-(para-chlorobenzamide)-acetohydroxamic acid]
- Primary screening call with vancomycin ([6]; compound 100 μM x vancomycin, E. coli): screening hit
- Primary screening call, pilot phase ([6]; E. coli): hit

SMILES: Cn1nnc(-c2ccc(-c3ccc(N4C[C@H](CO)OC4=O)cc3F)cn2)n1 [Tedizolid]
- Interaction between Tedizolid and Pasireotide (relative GFP) [6]: synergistic interaction
